Earlier results in patent US20260355183A1, “METHODS OF TREATING HEPATIC-ONLY METASTATIC UVEAL MELANOMA” (IDEAYA BIOSCIENCES, INC., priority 2023, published 2026).

Assays:
[1] = system: ocular melanoma liver metastases; conditions: in vivo
certain PKC isototypes = conditions: background statement
[2] = system: uveal melanoma cells harboring GNAQ mutations; conditions: by targeting PKC/ERK1/2 and PKC/NF-xB pathways; X. Wu et al., Mol. Cancer Ther. 11, 1905-1914, 2012

SMILES | DCR [1] [%] | activity against PKC isotypes (certain PKC isototypes) | inhibition of growth of uveal melanoma cells harboring GNAQ mutations [2]
N[C@@H](Cc1ccc(N(CCCl)CCCl)cc1)C(=O)O [melphalan] | 76.3 |  | 
CN1CCN(c2nc(C3=C(c4c[nH]c5ccccc45)C(=O)NC3=O)c3ccccc3n2)CC1 [sotrastaurin] |  | activity against certain PKC isototypes | selectively inhibit the growth of uveal melanoma cells harboring GNAQ mutations
